Results published in PubChem BioAssay (NCI).
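Step 1: Grow cells in 96-well plates. Step 2: Expose to compound for 48 hours at 5 concentrations. Step 3: Interpolate endpoints linearly; if unreached, use highest concentration. TGI marks complete inhibition of growth.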

How the values were obtained:
Experiment in all cases: growth of human tumour cells (NCI), 48 h
[1] = tested on: 786-0 renal
[2] = tested on: BT-549 breast
[3] = tested on: CCRF-CEM leukemia
[4] = tested on: DU-145 prostate
[5] = tested on: EKVX NSCLC
[6] = tested on: IGROV1 ovarian
[7] = tested on: LOX IMVI melanoma
[8] = tested on: MALME-3M melanoma
[9] = tested on: MCF7 breast
[10] = tested on: MDA-N
[11] = tested on: OVCAR-5 ovarian
[12] = tested on: OVCAR-8 ovarian
[13] = tested on: SK-MEL-2 melanoma
[14] = tested on: SK-MEL-28 melanoma
[15] = tested on: SN12C renal
[16] = tested on: SNB-75 CNS
[17] = tested on: SR leukemia
[18] = tested on: TK-10 renal
[19] = tested on: UO-31 renal
[20] = tested on: HOP-92 NSCLC

Row | SMILES | TGI [1] [µM] | TGI [2] [µM] | TGI [3] [µM] | TGI [4] [µM] | TGI [5] [µM] | TGI [6] [µM] | TGI [7] [µM] | TGI [8] [µM] | TGI [9] [µM] | TGI [10] [µM] | TGI [11] [µM] | TGI [12] [µM] | TGI [13] [µM] | TGI [14] [µM] | TGI [15] [µM] | TGI [16] [µM] | TGI [17] [µM] | TGI [18] [µM] | TGI [19] [µM] | TGI [20] [µM]
1 | C=C1C(=O)OC2C3C(=C)[C@@H](OC(C)=O)CC3C(C)=CC(OC(=O)C(C)(OC(C)=O)C(C)OC(C)=O)[C@@H]12 (stereo partly specified) | 33.5 | 33 | 12.3 | 30.5 | 30.9 | 37.7 | 27.3 | 26.5 | 24.1 | 30.1 | 42.6 | > 100 | 27.4 | 29 | 29.5 | 37.1 | > 100 | 27.9 | 30.8 | –
2 | O=C(NNC(=S)NCc1ccccc1)c1csc(NC(=S)NC2CCCCC2)n1 | > 100 | > 100 | > 100 | > 100 | > 100 | > 100 | > 100 | > 100 | > 100 | 73.2 | > 100 | > 100 | 65.7 | – | 95.7 | – | > 100 | > 100 | 58.2 | –
3 | CCN(CC)C(=S)SC(C(=O)Nc1nnc(-c2ccccc2)o1)c1ccccc1 (stereo unspecified) | 61.1 | 35 | – | 57.8 | 49.5 | > 100 | 17 | 62 | 47.7 | 36.5 | 56.1 | > 100 | 46.7 | 54.6 | 32.3 | > 100 | 70.7 | > 100 | 23.9 | –
4 | CC(C)C[C@H](NC(=O)[C@H](Cc1ccc(F)cc1)NC(=O)c1ccccn1)B(O)O | < 0.01 | < 0.01 | > 100 | – | 0.0933 | – | < 0.01 | < 0.01 | 0.166 | < 0.01 | < 0.01 | < 0.01 | < 0.01 | < 0.01 | < 0.01 | < 0.01 | < 0.01 | 0.0193 | < 0.01 | < 0.01
5 | COC(=O)C1Cc2ccc3c(c2C1=O)CCCC3 (stereo unspecified) | > 100 | > 100 | > 100 | > 100 | > 100 | > 100 | > 100 | > 100 | > 100 | > 100 | > 100 | > 100 | > 100 | > 100 | > 100 | > 100 | 82.9 | > 100 | > 100 | –
6 | Cn1c2ccccc2c(=O)c2cccc(C(=O)NCC(=O)O)c21 | > 100 | > 100 | – | > 100 | > 100 | > 100 | > 100 | > 100 | > 100 | > 100 | > 100 | > 100 | > 100 | > 100 | > 100 | > 100 | > 100 | > 100 | > 100 | –
7 | COc1nc2c(c(=O)n1C)N=C(c1ccccc1)[C@H](C(CC(=O)c1ccccc1)c1ccccc1)C(c1ccccc1)N2 (stereo partly specified) | > 100 | > 100 | > 100 | > 100 | > 100 | > 100 | > 100 | – | > 100 | > 100 | > 100 | > 100 | > 100 | > 100 | > 100 | 44.5 | > 100 | – | > 100 | > 100
8 | C#Cc1cc(Br)c(OC(=O)C(C)(C)C)c(-c2cc(C#C)cc(Br)c2OC(=O)C(C)(C)C)c1 | > 100 | > 100 | 36.1 | > 100 | > 100 | > 100 | 49.1 | > 100 | > 100 | > 100 | 66 | > 100 | > 100 | > 100 | > 100 | – | – | > 100 | – | > 100
9 | CCOc1ccccc1-c1nc2c(s1)C(=O)c1ccccc1C2=O | 30.5 | – | – | 36.5 | 41.2 | 27.7 | 16.7 | 19.8 | 46.3 | 6.5 | 40.1 | – | 30 | 30.4 | > 100 | 25.6 | > 100 | 34.4 | 25.4 | 25
10 | CN1C(=O)C(O)CC1c1ccccc1C(F)(F)F (stereo unspecified) | > 100 | > 100 | > 100 | > 100 | > 100 | > 100 | > 100 | > 100 | > 100 | > 100 | > 100 | > 100 | > 100 | > 100 | > 100 | > 100 | – | – | > 100 | > 100
11 | CC(=O)OCC(C)(COC(C)=O)N1C(=O)C2C3c4ccccc4C(c4ccccc43)C2C1=O (stereo unspecified) | > 100 | > 100 | > 100 | > 100 | > 100 | > 100 | > 100 | – | > 100 | > 100 | > 100 | > 100 | – | – | – | > 100 | > 100 | > 100 | > 100 | > 100
12 | ONC1=Nc2ccccc2C(=S)N2CSCC12 (stereo unspecified) | > 100 | > 100 | > 100 | > 100 | > 100 | > 100 | > 100 | > 100 | > 100 | 45.1 | > 100 | > 100 | > 100 | > 100 | > 100 | > 100 | 89 | > 100 | > 100 | –
13 | O=C1NC(N2CCCCC2)=N/C1=C\c1ccc(Cl)cc1 | 79.9 | > 100 | > 100 | > 100 | > 100 | > 100 | > 100 | > 100 | > 100 | > 100 | > 100 | 64.8 | > 100 | > 100 | > 100 | – | > 100 | > 100 | > 100 | 85.5
14 | O=C1OC(C2(O)OC(=O)c3ccccc32)c2ccccc21 (stereo unspecified) | > 100 | > 100 | – | > 100 | > 100 | > 100 | > 100 | – | > 100 | > 100 | > 100 | > 100 | > 100 | > 100 | > 100 | > 100 | > 100 | > 100 | > 100 | > 100
15 | O=C(CCc1ccccc1)n1cccc1CO | > 100 | > 100 | > 100 | > 100 | > 100 | > 100 | > 100 | > 100 | > 100 | > 100 | > 100 | > 100 | > 100 | > 100 | > 100 | > 100 | > 100 | > 100 | > 100 | –
16 | COC(=O)[C@H]1COC(=O)N1 | > 100 | > 100 | > 100 | > 100 | > 100 | > 100 | > 100 | > 100 | > 100 | > 100 | > 100 | > 100 | > 100 | > 100 | > 100 | > 100 | – | > 100 | > 100 | > 100
17 | c1ccc(C(=NCCC2CNc3ccccc32)c2ccccc2)cc1 (stereo unspecified) | > 100 | > 100 | > 100 | > 100 | > 100 | > 100 | – | > 100 | > 100 | > 100 | > 100 | > 100 | > 100 | > 100 | – | – | > 100 | – | > 100 | > 100
18 | COc1ccc(N=NC(=Nc2ccc(Cl)cc2)c2ccc(N(CCC#N)CCC#N)cc2)cc1 | > 100 | 87.3 | – | > 100 | > 100 | > 100 | – | – | > 100 | > 100 | > 100 | > 100 | 14.5 | > 100 | > 100 | > 100 | > 100 | > 100 | > 100 | 93
19 | O=c1c(-c2ccccc2F)coc2cc(F)ccc12 | > 100 | > 100 | > 100 | > 100 | > 100 | > 100 | > 100 | – | – | > 100 | > 100 | > 100 | > 100 | > 100 | > 100 | 96.4 | – | > 100 | > 100 | > 100
20 | COc1ccc(NC(C)=O)c(C(O)CCNC(C)=O)c1 (stereo unspecified) | > 100 | > 100 | > 100 | > 100 | > 100 | > 100 | > 100 | – | > 100 | > 100 | > 100 | > 100 | > 100 | – | > 100 | > 100 | > 100 | > 100 | > 100 | > 100
21 | Nc1ccc(C23CC4CC(C2)CC(c2ccc(N)cc2)(C4)C3)cc1 | > 100 | > 100 | 29.7 | > 100 | 81.6 | > 100 | > 100 | – | > 100 | > 100 | 61.4 | > 100 | > 100 | > 100 | 59.5 | – | 38.5 | > 100 | > 100 | > 100
22 | CCCCCCCCCCCCCCCCOP(=O)(O)OCC(NC(C)=O)C(=O)O (stereo unspecified) | > 100 | 34 | – | > 100 | > 100 | 62.2 | > 100 | > 100 | > 100 | > 100 | > 100 | > 100 | > 100 | > 100 | > 100 | 98.2 | > 100 | 62.6 | > 100 | > 100
23 | COc1cc2c(cc1OC)C(=O)C1(C2)[C@H](c2ccccc2)C2C(=O)c3cc(OC)c(OC)cc3C2[C@H]1c1ccccc1 (stereo partly specified) | > 100 | > 100 | > 100 | > 100 | > 100 | > 100 | > 100 | > 100 | – | > 100 | > 100 | > 100 | – | > 100 | > 100 | > 100 | > 100 | > 100 | > 100 | –
24 | CC(=O)OCC1OC(O[C@@H]2C[C@H]3C(C)(C)[C@@H](OC(C)=O)CC[C@]3(C)[C@H]3CC[C@]45C[C@]4(CC[C@H]5[C@@H](C)C[C@@H](O)[C@H](O)C(C)(C)F)[C@@]32C)C(O)C(O)C1O (stereo partly specified) | 3.24 | 3.4 | 3.57 | > 100 | 3.21 | 4.45 | 4.33 | 3.48 | > 100 | 3.09 | 2.81 | 6.1 | – | 3.3 | 3.23 | – | – | > 100 | – | 3.71
25 | Oc1cc(N2CCCC2)ccc1/C=N/N1C(=S)N(c2ccccc2)C(=Nc2ccccc2)C1=Nc1ccccc1 | > 100 | > 100 | – | > 100 | > 100 | > 100 | – | > 100 | > 100 | > 100 | > 100 | > 100 | > 100 | > 100 | > 100 | – | > 100 | > 100 | > 100 | > 100
26 | CCOC(OCC)N1C(=O)C2(C(OCC)OCC)CC3C(OC(=O)N3N)c3cccc1c32 (stereo unspecified) | > 100 | > 100 | > 100 | > 100 | > 100 | > 100 | > 100 | > 100 | > 100 | > 100 | > 100 | > 100 | – | > 100 | > 100 | – | > 100 | > 100 | > 100 | –
